#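 Interpolation was linear, between the two tested concentrations surrounding the appropriate level; five concentrations were tested over 48 hours in 96-well plates. GI50 = concentration required for 50% inhibition of growth.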 The source made the active and inactive calls. Rule as the data show it: active = GI50 up to about 1.1 µM and inactive = higher.
# Legend:
# Assay in all cases: NCI tumour cell line growth inhibition, 48 h
# HCC 2998 = system: HCC 2998
# HCT-15 = system: HCT-15
# OVCAR-3 = system: OVCAR-3
# UACC-257 = system: UACC-257
# RPMI-8226 = system: RPMI-8226
# A549 = system: A549
# OVCAR-4 = system: OVCAR-4
# SK-MEL-2 = system: SK-MEL-2
# NCI-H226 = system: NCI-H226
# BT-549 = system: BT-549
# EKVX = system: EKVX
# LOX IMVI = system: LOX IMVI
# SK-OV-3 = system: SK-OV-3
# NCI-H460 = system: NCI-H460
# OVCAR-8 = system: OVCAR-8
# HOP-62 = system: HOP-62
# MDA-MB-435 = system: MDA-MB-435
# MDA-N = system: MDA-N
# UACC-62 = system: UACC-62
# T47D = system: T47D
SMILES,GI50 (HCC 2998),GI50 (HCT-15) [µM],GI50 (OVCAR-3),GI50 (UACC-257),GI50 (RPMI-8226),GI50 (A549),GI50 (OVCAR-4),GI50 (SK-MEL-2),GI50 (NCI-H226),GI50 (BT-549),GI50 (EKVX),GI50 (LOX IMVI),GI50 (SK-OV-3),GI50 (NCI-H460),GI50 (OVCAR-8),GI50 (HOP-62),GI50 (MDA-MB-435),GI50 (MDA-N),GI50 (UACC-62),GI50 (T47D)
NC(=S)NN=C1Cc2ccccc2C1,> 100 µM (inactive),> 100,> 100 µM (inactive),> 100 µM (inactive),> 100 µM (inactive),> 100 µM (inactive),> 100 µM (inactive),> 100 µM (inactive),> 100 µM (inactive),> 100 µM (inactive),42.3 µM (inactive),> 100 µM (inactive),> 100 µM (inactive),> 100 µM (inactive),> 100 µM (inactive),> 100 µM (inactive),> 100 µM (inactive),> 100 µM (inactive),> 100 µM (inactive),> 100 µM (inactive)
O=Cc1ccc(-c2cc(C=O)c(-c3cccs3)[nH]2)s1,16.6 µM (inactive),24.8,18.5 µM (inactive),48 µM (inactive),53.2 µM (inactive),24.8 µM (inactive),26 µM (inactive),46.2 µM (inactive),4.76 µM (inactive),28.2 µM (inactive),40 µM (inactive),25.3 µM (inactive),48.4 µM (inactive),25.8 µM (inactive),21.4 µM (inactive),21.3 µM (inactive),25.6 µM (inactive),18.6 µM (inactive),27.5 µM (inactive),8.85 µM (inactive)
CC1=C(C)SC(=C2Sc3c(n(C)c(=O)n(C)c3=O)S2)S1,> 100 µM (inactive),> 100,71.3 µM (inactive),> 100 µM (inactive),> 100 µM (inactive),42.5 µM (inactive),21.4 µM (inactive),22.3 µM (inactive),20 µM (inactive),57.1 µM (inactive),> 100 µM (inactive),48.5 µM (inactive),15.5 µM (inactive),30.5 µM (inactive),23.6 µM (inactive),18.7 µM (inactive),98.6 µM (inactive),47.6 µM (inactive),44.7 µM (inactive),> 100 µM (inactive)
NC(=S)NS(=O)(=O)c1ccc(F)cc1,> 100 µM (inactive),> 100,> 100 µM (inactive),> 100 µM (inactive),> 100 µM (inactive),> 100 µM (inactive),> 100 µM (inactive),> 100 µM (inactive),> 100 µM (inactive),> 100 µM (inactive),> 100 µM (inactive),> 100 µM (inactive),> 100 µM (inactive),> 100 µM (inactive),> 100 µM (inactive),> 100 µM (inactive),> 100 µM (inactive),> 100 µM (inactive),> 100 µM (inactive),> 100 µM (inactive)
COC(=O)/C=C\C(C#N)(C#N)/N=C/c1ccc(C)cc1,18.2 µM (inactive),2.56,2.6 µM (inactive),4.24 µM (inactive),0.586 µM (active),17.7 µM (inactive),3.89 µM (inactive),16.3 µM (inactive),8.75 µM (inactive),5.02 µM (inactive),14.4 µM (inactive),2.33 µM (inactive),17.6 µM (inactive),19.6 µM (inactive),2.25 µM (inactive),19.3 µM (inactive),2.21 µM (inactive),4.06 µM (inactive),14.9 µM (inactive),1.79 µM (inactive)
COc1cc(/C=C2/SC(c3ccccc3)N(c3cc(Cl)ccc3Cl)C2=O)cc(OC)c1OC (stereo not given),> 100 µM (inactive),50.6,52.2 µM (inactive),> 100 µM (inactive),23.8 µM (inactive),> 100 µM (inactive),49.8 µM (inactive),> 100 µM (inactive),> 100 µM (inactive),> 100 µM (inactive),84.9 µM (inactive),67.6 µM (inactive),> 100 µM (inactive),> 100 µM (inactive),> 100 µM (inactive),> 100 µM (inactive),22.3 µM (inactive),19.1 µM (inactive),44.2 µM (inactive),30.1 µM (inactive)
Oc1ccc2ccccc2c1-c1c(Nc2ccccc2)ccc2ccccc12,14 µM (inactive),> 38,9.4 µM (inactive),18.9 µM (inactive),17.8 µM (inactive),18.5 µM (inactive),12.3 µM (inactive),17.2 µM (inactive),21 µM (inactive),16.3 µM (inactive),16.9 µM (inactive),19.4 µM (inactive),6.08 µM (inactive),15.4 µM (inactive),16.6 µM (inactive),16.1 µM (inactive),6.34 µM (inactive),6.22 µM (inactive),14.9 µM (inactive),18.8 µM (inactive)
NC(=O)C[C@H](NC(=O)C1(NC(=O)[C@H](Cc2ccc(CP(=O)(O)O)cc2)NC(=O)C(=O)O)CCCCC1)C(=O)NCCCc1cccc2ccccc12,> 10 µM (inactive),> 10,> 10 µM (inactive),> 10 µM (inactive),> 10 µM (inactive),> 10 µM (inactive),> 10 µM (inactive),> 10 µM (inactive),7.45 µM (inactive),> 10 µM (inactive),> 10 µM (inactive),> 10 µM (inactive),> 10 µM (inactive),> 10 µM (inactive),> 10 µM (inactive),> 10 µM (inactive),> 10 µM (inactive),> 10 µM (inactive),> 10 µM (inactive),> 10 µM (inactive)
COc1ccc(/C=N/n2c(Cc3ccccc3)n[nH]c2=O)c(OC)c1,> 77.4 µM (inactive),> 100,> 63.5 µM (inactive),> 100 µM (inactive),> 100 µM (inactive),> 39.5 µM (inactive),> 58.6 µM (inactive),> 59.8 µM (inactive),33.8 µM (inactive),8.2 µM (inactive),> 57.9 µM (inactive),27.5 µM (inactive),29.2 µM (inactive),> 50.7 µM (inactive),24.7 µM (inactive),20.9 µM (inactive),> 100 µM (inactive),> 100 µM (inactive),> 88.3 µM (inactive),> 100 µM (inactive)
CCN(CC)C(=S)SNCc1ccc(S(N)(=O)=O)cc1,36 µM (inactive),19.1,14.4 µM (inactive),17.1 µM (inactive),2.93 µM (inactive),12.3 µM (inactive),18.7 µM (inactive),16.6 µM (inactive),> 38.9 µM (inactive),18.5 µM (inactive),20.9 µM (inactive),13.5 µM (inactive),40.1 µM (inactive),1.34 µM (inactive),14.4 µM (inactive),15.4 µM (inactive),19.5 µM (inactive),15.6 µM (inactive),24.9 µM (inactive),16.4 µM (inactive)
N=C(NCc1ccccc1)N/N=C\c1ccnc2ccccc12,2.1 µM (inactive),16,11.6 µM (inactive),2.35 µM (inactive),1.29 µM (inactive),15 µM (inactive),11.7 µM (inactive),9.73 µM (inactive),17.1 µM (inactive),4.56 µM (inactive),10 µM (inactive),11.5 µM (inactive),15.5 µM (inactive),13.9 µM (inactive),13.5 µM (inactive),16 µM (inactive),9.23 µM (inactive),10.9 µM (inactive),15.1 µM (inactive),1.41 µM (inactive)
COC(=O)C1=C(OC(=O)c2ccccc2)C(C(=O)OC)[C@@]2(O)[C@@H](C(=O)OC)[C@H](C)C[C@@H]1[C@@H]2C(=O)OC (stereo not given in full),25 µM (inactive),58.1,46.2 µM (inactive),33.3 µM (inactive),19 µM (inactive),19.5 µM (inactive),31.6 µM (inactive),58.2 µM (inactive),45.5 µM (inactive),23.7 µM (inactive),31.6 µM (inactive),32.1 µM (inactive),29.5 µM (inactive),25.3 µM (inactive),26.4 µM (inactive),33.1 µM (inactive),25.3 µM (inactive),21.4 µM (inactive),39.7 µM (inactive),28 µM (inactive)
Cc1oc2c(c1C(=O)c1ccccc1)C(=O)c1ccccc1C2=O,15.5 µM (inactive),4.51,2.26 µM (inactive),3.61 µM (inactive),2.85 µM (inactive),14.7 µM (inactive),3.21 µM (inactive),3.26 µM (inactive),13.9 µM (inactive),6.19 µM (inactive),12.6 µM (inactive),2.22 µM (inactive),12.5 µM (inactive),9.38 µM (inactive),5.06 µM (inactive),14.2 µM (inactive),1.58 µM (inactive),2 µM (inactive),2.98 µM (inactive),3.83 µM (inactive)
CCOC(=O)C(C)NC(=O)C(C)NC(=O)C(C)NC(=O)C(C)NC(=O)C(C)NC(=O)OCc1ccccc1 (stereo not given),> 100 µM (inactive),> 100,> 100 µM (inactive),> 100 µM (inactive),> 100 µM (inactive),> 100 µM (inactive),> 100 µM (inactive),> 100 µM (inactive),> 100 µM (inactive),> 100 µM (inactive),> 100 µM (inactive),> 100 µM (inactive),> 100 µM (inactive),> 100 µM (inactive),> 100 µM (inactive),> 100 µM (inactive),> 100 µM (inactive),> 100 µM (inactive),> 100 µM (inactive),> 100 µM (inactive)
